# Biological target: T1, CXCR3 (Homo sapiens, UniProt P49682)
# T1 sequence (P49682 1-368): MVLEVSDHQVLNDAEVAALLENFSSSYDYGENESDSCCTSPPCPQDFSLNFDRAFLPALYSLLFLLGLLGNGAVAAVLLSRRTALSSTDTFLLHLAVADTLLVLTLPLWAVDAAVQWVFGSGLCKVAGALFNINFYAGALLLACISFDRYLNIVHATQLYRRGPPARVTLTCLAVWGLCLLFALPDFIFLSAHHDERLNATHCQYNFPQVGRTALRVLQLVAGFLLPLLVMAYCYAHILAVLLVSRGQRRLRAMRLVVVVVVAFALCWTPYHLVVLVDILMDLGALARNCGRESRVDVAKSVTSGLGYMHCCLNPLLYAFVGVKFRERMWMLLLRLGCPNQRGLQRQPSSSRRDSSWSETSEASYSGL
# Assay: CXCR3 Ca2+ mobilization (FLIPR), stable hCXCR3-CHO cell line, I-TAC stimulated
# Format: cell-based
# Parameters: host or cells: CHO cells stably expressing hCXCR3
# Conditions: hCXCR3-CHO cells, I-TAC 100 nM stimulated Ca2+ response; read-out: Ca-ITAC
# Procedure: Human chinese hamster ovary (CHO) cell line stably expressing hCXCR3 was purchased from Euroscreen (Belgium) and culture in HAM's F12 (Invitrogen) containing 10% heat inactivated fetal calf serum (Cancerra, Australia), 50 units ml−1 penicillin, 50 μml−1 streptomycin, (Invitrogen, USA) and 400 μg/ml geneticin (G418) (Calbiochem, San Diego), according to the manufacturer.
# CXCR3Ca^2+ mobilization was measured using a stable hCXCR3—CHO cell line and a microtiter-plate based assay using FLIPR^TETRA™ (Molecular Devices). In more detail, cells were harvested and plated into black 384-well plates (Becton-Dickinson) at a density of 15 000 cells per well and grown in the incubator for 18 hours. On the next day the media was aspirated and replaced with the cell loading buffer (HBSS—(Invitrogen) based buffer containing calcium indicator and signal enhancer from a commercial Ca2+ assay kit (Becton Dickinson). The plates were incubated for 60 minutes in the incubator, the test compounds were added and the plates equilibrated for 20 minutes at room temperature.
# Plates were placed into FLIPR and the CXCR3 agonist (I-TAC, 100 nM) stimulated fluorescence change was quantitated. The activity of CXCR3 antagonists was determined as percent of the CXCR3 ligand I-TAC in the absence of the test compounds (=100% activity).
row,Structure (SMILES),IC50 [µM]
1,O=S(=O)(c1ccc(OC(F)(F)F)cc1)N(Cc1ccccc1)Cc1ccc(-c2nnn[nH]2)cc1 [Example 115],2
2,N#Cc1ccc(CN(Cc2ccccn2)S(=O)(=O)c2cccc(Cl)c2)cc1 [Example 313],15
3,CC(C)(C)OC(=O)N[C@@H](C(=O)Nc1ccc(CN(Cc2ccccn2)S(=O)(=O)c2ccc(Cl)cc2)cc1)c1ccccc1 [Example 180],1
4,CC(C)(C)c1ccc(S(=O)(=O)N(Cc2ccc(-c3nnn[nH]3)cc2)Cc2ccccn2)cc1 [Example 141],3
5,Cc1cccc(S(=O)(=O)N(Cc2ccc(C#N)cc2)Cc2ccccn2)c1 [Example 175],3.5
6,O=S(=O)(c1ccc(Cl)cc1)N(Cc1ccc(-c2nnn[nH]2)cc1)Cc1ccccc1-n1cccn1 [Example 280],20
7,O=S(=O)(c1ccc(Cl)cc1)N(CCc1ccccc1)Cc1ccc(-c2nnn[nH]2)cc1 [Example 204],2.01
8,N#Cc1ccccc1CN(Cc1ccccn1)S(=O)(=O)c1ccc(Cl)cc1 [Example 196],13
9,COc1cccc(S(=O)(=O)N(Cc2ccc(C#N)cc2)Cc2ccccn2)c1 [Example 178],2
10,CCOC(=O)c1ccc(CN(Cc2cccnc2)S(=O)(=O)c2ccc(C#N)cc2)cc1 [Example 156],1.9
11,COC(C(=O)Nc1ccc(CN(Cc2ccccn2)S(=O)(=O)c2ccc(Cl)cc2)cc1)c1ccccc1 (stereo not drawn) [Example 182],0.04
12,O=S(=O)(c1ccc(Cl)cc1)N(CCCc1ccccc1)Cc1ccc(-c2nnn[nH]2)cc1 [Example 221],1.7
13,O=C(NCc1ccccc1)c1ccc(CN(Cc2ccccc2)S(=O)(=O)c2ccc(F)cc2)cc1 [Example 32],3.9
14,O=S(=O)(c1ccccc1-c1ccccc1)N(Cc1ccc(-c2nnn[nH]2)cc1)Cc1ccccn1 [Example 253],9.5
15,CC(CN(Cc1ccc(-c2nnn[nH]2)cc1)S(=O)(=O)c1ccc(Cl)cc1)c1ccccc1 (stereo not drawn) [Example 227],5
16,"O=C(NCc1ccccc1)c1ccc(CN(Cc2ccc(F)cc2)S(=O)(=O)c2ccc(Cl)cc2)cc1 [Example 34, 4-{[[(4-chlorophenyl)sulfonyl](4-fluorobenzyl)amino]methyl}-N-phenyl methyl benzamide]",1.8
17,O=S(=O)(c1ccc(Cl)cc1Cl)N(Cc1ccc(-c2nnn[nH]2)cc1)Cc1ccccn1 [Example 78],3
18,CC(c1ccc(-c2nnn[nH]2)cc1)N(Cc1ccccc1)S(=O)(=O)c1ccc(Cl)cc1 (stereo not drawn) [Example 171],1.95
19,N#Cc1ccc(CN(Cc2ccccn2)S(=O)(=O)c2ccccc2[N+](=O)[O-])cc1 [Example 173],0.4

row,Structure (SMILES),IC50 [µM]
1,CCOC(=O)c1ccc(CN(Cc2cccnc2)S(=O)(=O)c2ccc(Cl)cc2)cc1 [Example 159],4
2,N#Cc1ccc(CN(Cc2ccccn2)S(=O)(=O)c2ccccc2Cl)cc1 [Example 186],5
3,CCOC(=O)c1ccc(CN(Cc2cccnc2)S(=O)(=O)c2ccc(OCC)cc2)cc1 [Example 155],2
4,N#Cc1ccc(S(=O)(=O)N(Cc2ccc(NC(=O)Cc3nnn[nH]3)cc2)Cc2ccccn2)cc1 [Example 300],12
5,C[C@H](c1ccc(NC(=O)C2(c3ccccc3)CC2)cc1)N(Cc1ccccn1)S(=O)(=O)c1ccc(Cl)cc1 [Example 168],3.33
6,"O=S(=O)(c1ccc(Cl)cc1)N(Cc1ccc(-c2nnn[nH]2)cc1)Cc1cc(Cl)ccc1F [Example 61, 4-chloro-N-(5-chloro-2-fluorobenzyl)-N-[4-(2H-tetrazol-5-yl)benzyl]benzene sulfonamide]",0.2
7,"CCS(=O)(=O)NC(=O)c1ccc(CN(Cc2ccccn2)S(=O)(=O)c2ccc(Cl)cc2)cc1 [Example 55, N-(ethanesulfonyl)-4-{[[(4-chlorophenyl)sulfonyl](pyridin-2-yl-methyl)amino]methyl}benzamide]",11
8,COc1ccc(S(=O)(=O)N(Cc2ccccc2)Cc2ccc(C(=O)NCc3ccccc3)cc2)cc1 [Example 31],1.9
9,N#Cc1cccc(CN(Cc2ccccc2)S(=O)(=O)c2ccc(Cl)cc2)c1 [Example 230],1.2
10,Cc1ccccc1S(=O)(=O)N(Cc1ccc(C#N)cc1)Cc1ccccn1 [Example 287],7
11,"O=C(NS(=O)(=O)C1CC1)c1ccc(CN(Cc2ccccn2)S(=O)(=O)c2ccc(Cl)cc2)cc1 [Example 49, N-(cyclopropanesulfonyl)-4-{[[(4-chlorophenyl)sulfonyl](pyridin-2-ylmethyl)amino]methyl}benzamide]",5.6
12,"O=S(=O)(c1ccc(Cl)cc1)N(Cc1ccc(-c2nnn[nH]2)cc1)Cc1ccc(Cl)cc1F [Example 70, 4-chloro-N-(2-fluoro-4-chlorobenzyl)-N-[4-(2H-tetrazol-5yl)benzyl]benzene sulfonamide]",3
13,"N#Cc1ccc(C(=O)N(Cc2ccccn2)S(=O)(=O)c2ccc(Cl)cc2)cc1 [Example 281, 4-Chloro-N-(4-cyano-benzoyl)-N-pyridin-2-ylmethyl-benzenesulfonamide]",7
14,"CS(=O)(=O)NC(=O)c1ccc(CN(Cc2ccccn2)S(=O)(=O)c2ccc(Cl)cc2)cc1 [Example 48, N-(methanesulfonyl)-4{[[(4-chlorophenyl)sulfonyl](pyridin-2-ylmethyl)amino]methyl}benzamide]",8.3
15,O=[N+]([O-])c1ccc(S(=O)(=O)N(Cc2ccc(-c3nnn[nH]3)cc2)Cc2ccccn2)cc1 [Example 140],2
16,Cc1cc(S(=O)(=O)N(Cc2ccc(-c3nnn[nH]3)cc2)Cc2ccccn2)c(F)cc1Cl [Example 79],4
17,O=S(=O)(c1ccc(Cl)cc1)N(Cc1ccc(-c2nnn[nH]2)cc1)Cc1ccccc1Oc1ccc(F)cc1 [Example 104],1
18,CC(CCc1ccccc1)N(Cc1ccc(-c2nnn[nH]2)cc1)S(=O)(=O)c1ccc(Cl)cc1 (stereo not drawn) [Example 224],1.5

# The remaining lines, values ahead:
row,IC50 [µM],Structure (SMILES)
1,3,CCOc1ccc(C2(NC(=O)c3ccc(CN(Cc4ccccn4)S(=O)(=O)c4ccc(OCC)cc4)cc3)CC2)cc1 [Example 130]
2,4,O=C(N[C@@H](Cc1ccc(O)cc1)C(=O)O)c1ccc(CN(Cc2ccccn2)S(=O)(=O)c2ccc(Cl)cc2)cc1 [Example 154]
3,6,CCOc1ccc(S(=O)(=O)N(Cc2ccc(C(=O)OC)c(O)c2)Cc2ccccn2)cc1 [Example 353]
4,0.14,CCOC(=O)C1(NC(=O)c2ccc(CN(Cc3ccccn3)S(=O)(=O)c3ccc(C#N)cc3)cc2)CC1 [Example 144]
5,1.25,CC(CNC(=O)c1ccc(CN(Cc2cccnc2)S(=O)(=O)c2ccc(C#N)cc2)cc1)c1ccccc1 (stereo not drawn) [Example 112]
6,10,O=C(NC1(c2ccccc2)CC1)c1ccc(CN(Cc2ccc3cccnc3n2)S(=O)(=O)c2ccc(Cl)cc2)cc1 [Example 330]
7,0.15,O=C(NC(C(=O)O)c1ccccc1)c1ccc(CN(Cc2ccccn2)S(=O)(=O)c2ccc(Cl)cc2)cc1 (stereo not drawn) [Example 151]
8,7,CCOc1ccc(S(=O)(=O)N(Cc2ccc(C(=O)O)c(OC)c2)Cc2ccccn2)cc1 [Example 346]
9,0.705,O=C(NC1(c2ccccc2)CC1)c1ccc(CN(Cc2ccccn2)S(=O)(=O)c2ccc(Cl)c(Cl)c2)cc1 [Example 46]
10,5,O=C(NC1(c2ccc(OC(F)(F)F)cc2)CC1)c1ccc(CN(Cc2ccccn2)S(=O)(=O)c2ccc(Cl)cc2)cc1 [Example 131]
11,13,CCOC(=O)c1ccc(CN(Cc2ccccn2)S(=O)(=O)c2ccc(OCC)cc2)cc1 [Example 191]
12,7.5,CCOc1ccc(S(=O)(=O)N(Cc2ccc(C(=O)NC3(c4ccc(OC(F)(F)F)cc4)CC3)cc2)Cc2ccccn2)cc1 [Example 283]
13,2.5,CCOc1ccc(C2(NC(=O)c3ccc(CN(Cc4ccccn4)S(=O)(=O)c4ccc(C#N)cc4)cc3)CC2)cc1 [Example 129]
14,0.8,"CCOc1ccc(S(=O)(=O)N(Cc2ccc(C(=O)N[C@H]3[C@@H]4CN(C(=O)c5ccc(OC(F)(F)F)cc5)C[C@@H]43)cc2)Cc2ccccn2)cc1 [Example 117, 4-{[(4-Ethoxy-benzenesulfonyl)-pyridin-2-ylmethyl-amino]-methyl}-N-[(1S,5R,6S)-3-(4-trifluoromethoxy-benzoyl)-3-aza-bicyclo[3.1.0]hex-6-yl]-benzamide]"
15,1.7,CCOc1ccc(S(=O)(=O)N(Cc2ccc(C(=O)NCC(C)c3ccccc3)cc2)Cc2ccccn2)cc1 (stereo not drawn) [Example 86]
16,4,CCOc1ccc(S(=O)(=O)N(Cc2ccc(C(=O)NC3(c4cccc(C#N)c4)CC3)cc2)Cc2ccccn2)cc1 [Example 85]
17,18,COC(=O)C(Cc1ccc(O)cc1)NC(=O)c1ccc(CN(Cc2ccccn2)S(=O)(=O)c2ccc(Cl)cc2)cc1 (stereo not drawn) [Example 345]

# Reference: patent US20110028509A1, “Sulfonamides” (MERCK SERONO SA, priority 2008, published 2011)
